The source of these data is patent US11441162B2, “Human gut microbiome-derived biosynthetic enzymes for production of fatty acid amides” (Massachusetts Institute of Technology, priority 2019, dated 2022).

For assay [1], the target named is T1, GPR132 (Homo sapiens, UniProt Q9UNW8).
T1 sequence (Q9UNW8 1-380): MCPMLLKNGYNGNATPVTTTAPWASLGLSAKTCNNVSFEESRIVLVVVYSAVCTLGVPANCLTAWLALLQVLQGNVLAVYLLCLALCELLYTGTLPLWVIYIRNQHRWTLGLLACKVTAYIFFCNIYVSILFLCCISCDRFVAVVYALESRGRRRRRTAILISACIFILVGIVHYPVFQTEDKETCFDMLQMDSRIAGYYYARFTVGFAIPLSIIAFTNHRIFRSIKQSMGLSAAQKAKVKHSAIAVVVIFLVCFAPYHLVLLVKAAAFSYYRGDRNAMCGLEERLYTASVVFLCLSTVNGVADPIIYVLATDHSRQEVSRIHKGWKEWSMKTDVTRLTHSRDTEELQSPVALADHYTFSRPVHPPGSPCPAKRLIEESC
In words: Cell-based β-arrestin reporter assay (DiscoverX), GPR132 agonist mode: orphan panel at 10 uM and concentration-response. The procedure:
FIGS. 31A-31H show GPCR activity assay of lauroyl tryptamine. a, Cell-based β-arrestin reporter assay (DiscoveRx) with a panel of 168 GPCRs with known ligands in agonist mode and antagonist mode, and also 73 orphan GPCRs in agonist mode at 10 uM. Agonist mode measures % activity of target GPCR by the compound, relative to the baseline value (0% activity) and maximum value with a known ligand, or twofold increase over baseline for orphan GPCR (100% activation). Antagonist mode measures % inhibition of target GPCR by the compound in the presence of a known ligand, relative to the value at the EC80 (0% inhibition) and basal value (100% inhibition). […] EBI2 antagonist activity (δ1%) is marked with an asterisk (*). b, Concentration-dose response curves of the inhibitory activity of lauroyl tryptamine, tryptamine, and lauric acid on EBI2 in the presence of the native agonist 7α,25-dihydroxycholesterol (7a,25-diHC) at 0.232 uM (EC80). […] IC50>100 uM for all three compounds. d, Concentration-dose response curves of the stimulatory activity of lauroyl tryptamine, tryptamine, and lauric acid on GPR132. […] For b, c, d, the curves span ten concentration points in duplicates from 100 to 0.0051 uM, with the error bar being the s.d. from duplicates. e, MS chromatogram (EIC ESI+[M+H]^+ m/z of lauroyl tryptamine, theoretical=343.2744, experimental=[…]) of the in vivo extract of E. rectale in RCM media (with no fed substrates). […] The production titer was determined to be 0.04 mg/L. f, Product titer of fatty acyl tryptamine from the in vivo extract of E. rectale in RCM, when fed with exogenous fatty acid (lauric acid, linoleic acid, oleic acid, docosahexaenoic acid, or α-linolenic acid). g, Mapping of human gut metatranscriptomic reads from subject subX316701492 (accession: SRX247340) onto a 80 kb region of the E. rectale genome centered on the FAA pathway (darker arrows, labeled “FAA”). […]
(§1) FAAs are known to modulate diverse biological functions by interacting with human GPCRs. […] The FAAs were analyzed for activity against a panel of known and orphan human GPCRs using the DiscoverX platform. […]

The next assay addresses EBI2/GPR183 (Homo sapiens, UniProt P32249). Kind of assay: Cell-based β-arrestin reporter assay (DiscoverX), EBI2 antagonist mode: panel at 10 uM and concentration-response. The following applies: for inhibition on EBI2 (concentration-response, in words): antagonist mode against 7α,25-diHC; for IC50: in the presence of native agonist 7α,25-dihydroxycholesterol at 0.232 uM (EC80), ten concentrations 100 to 0.0051 uM, read-out: IC50, inhibitory activity on EBI2. As to the method: FIGS. 31A-31H show GPCR activity assay of lauroyl tryptamine. a, Cell-based β-arrestin reporter assay (DiscoveRx) with a panel of 168 GPCRs with known ligands in agonist mode and antagonist mode, and also 73 orphan GPCRs in agonist mode at 10 uM. Agonist mode measures % activity of target GPCR by the compound, relative to the baseline value (0% activity) and maximum value with a known ligand, or twofold increase over baseline for orphan GPCR (100% activation). Antagonist mode measures % inhibition of target GPCR by the compound in the presence of a known ligand, relative to the value at the EC80 (0% inhibition) and basal value (100% inhibition). […] EBI2 antagonist activity (δ1%) is marked with an asterisk (*). b, Concentration-dose response curves of the inhibitory activity of lauroyl tryptamine, tryptamine, and lauric acid on EBI2 in the presence of the native agonist 7α,25-dihydroxycholesterol (7a,25-diHC) at 0.232 uM (EC80). […] IC50>100 uM for all three compounds. d, Concentration-dose response curves of the stimulatory activity of lauroyl tryptamine, tryptamine, and lauric acid on GPR132. […] For b, c, d, the curves span ten concentration points in duplicates from 100 to 0.0051 uM, with the error bar being the s.d. from duplicates. e, MS chromatogram (EIC ESI+[M+H]^+ m/z of lauroyl tryptamine, theoretical=343.2744, experimental=[…]) of the in vivo extract of E. rectale in RCM media (with no fed substrates). The samples are injected alongside a chemically synthesized and structurally verified standard. The * denotes lauroyl tryptamine. The production titer was determined to be 0.04 mg/L. f, Product titer of fatty acyl tryptamine from the in vivo extract of E. rectale in RCM, when fed with exogenous fatty acid (lauric acid, linoleic acid, oleic acid, docosahexaenoic acid, or α-linolenic acid). g, Mapping of human gut metatranscriptomic reads from subject subX316701492 (accession: SRX247340) onto a 80 kb region of the E. rectale genome centered on the FAA pathway (darker arrows, labeled “FAA”). The mean coverage of the 80 kb segment was 0.8 (SD=3.3), while the mean coverage of the FAA pathway by itself was 1.5 (SD=1.1). Housekeeping genes within this segment include tRNA synthetase (tR), carbohydrate metabolism (CM), and sugar transporter (ST) genes. h, Immunological and development role of the EBI2-oxysterol axis and its suppression by E. rectale-derived lauroyl tryptamine to possibly protect against IBD.
FAAs are known to modulate diverse biological functions by interacting with human GPCRs. The products of the FAA screen are either known GPCR ligands or appear to structurally mimic these molecules (FIG. 30). The FAAs were analyzed for activity against a panel of known and orphan human GPCRs using the DiscoverX platform. […]
Background: Reporter assays use an easily measured gene product as a stand-in for the process of interest.

Another assay deals with P2RY4 (Homo sapiens, UniProt P51582). Kind of assay: Cell-based β-arrestin reporter assay (DiscoverX), P2RY4 antagonist mode: panel at 10 uM and concentration-response. The following applies: in the presence of native agonist UTP at 2.79 uM (EC80); ten concentrations 100 to 0.0051 uM; read-out: IC50, inhibitory activity on P2RY4. The procedure: FIGS. 31A-31H show GPCR activity assay of lauroyl tryptamine. a, Cell-based β-arrestin reporter assay (DiscoveRx) with a panel of 168 GPCRs with known ligands in agonist mode and antagonist mode, and also 73 orphan GPCRs in agonist mode at 10 uM. Agonist mode measures % activity of target GPCR by the compound, relative to the baseline value (0% activity) and maximum value with a known ligand, or twofold increase over baseline for orphan GPCR (100% activation). Antagonist mode measures % inhibition of target GPCR by the compound in the presence of a known ligand, relative to the value at the EC80 (0% inhibition) and basal value (100% inhibition). […] The production titer was determined to be 0.04 mg/L. f, Product titer of fatty acyl tryptamine from the in vivo extract of E. rectale in RCM, when fed with exogenous fatty acid (lauric acid, linoleic acid, oleic acid, docosahexaenoic acid, or α-linolenic acid). g, Mapping of human gut metatranscriptomic reads from subject subX316701492 (accession: SRX247340) onto a 80 kb region of the E. rectale genome centered on the FAA pathway (darker arrows, labeled “FAA”). […]
Chain of P2RY4 (P51582 whole entry): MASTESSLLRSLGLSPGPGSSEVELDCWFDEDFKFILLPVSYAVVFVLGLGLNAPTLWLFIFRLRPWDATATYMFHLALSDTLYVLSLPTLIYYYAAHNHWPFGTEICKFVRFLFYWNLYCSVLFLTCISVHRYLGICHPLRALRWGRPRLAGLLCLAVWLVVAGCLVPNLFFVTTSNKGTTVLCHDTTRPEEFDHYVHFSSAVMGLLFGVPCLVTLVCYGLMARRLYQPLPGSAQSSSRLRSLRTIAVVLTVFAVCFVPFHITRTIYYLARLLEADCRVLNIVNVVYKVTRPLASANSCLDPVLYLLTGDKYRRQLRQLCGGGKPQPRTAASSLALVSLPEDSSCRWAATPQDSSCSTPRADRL
as §1

The next assay addresses T2, PRLHR (Homo sapiens, UniProt P49683).
T2 sequence (P49683 1-370): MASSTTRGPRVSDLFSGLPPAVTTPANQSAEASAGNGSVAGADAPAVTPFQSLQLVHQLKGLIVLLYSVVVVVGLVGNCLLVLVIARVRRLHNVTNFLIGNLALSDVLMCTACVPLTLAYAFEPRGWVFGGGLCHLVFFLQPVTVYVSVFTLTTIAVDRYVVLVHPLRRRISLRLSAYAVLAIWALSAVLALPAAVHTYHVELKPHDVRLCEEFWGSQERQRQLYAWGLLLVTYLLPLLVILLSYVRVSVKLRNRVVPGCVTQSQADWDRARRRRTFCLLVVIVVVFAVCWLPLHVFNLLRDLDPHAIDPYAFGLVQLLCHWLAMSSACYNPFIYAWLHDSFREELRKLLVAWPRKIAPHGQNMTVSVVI
Kind of assay: Cell-based β-arrestin reporter GPCR panel (DiscoverX) at 10 uM, PRLHR. The conditions noted are these: compound at 10 uM. As to the method:
(§2) Cell-based β-arrestin reporter assay (DiscoveRx) with a panel of 168 GPCRs with known ligands in agonist mode and antagonist mode, and also 73 orphan GPCRs in agonist mode at 10 uM. Agonist mode measures % activity of target GPCR by the compound, relative to the baseline value (0% activity) and maximum value with a known ligand, or twofold increase over baseline for orphan GPCR (100% activation). Antagonist mode measures % inhibition of target GPCR by the compound in the presence of a known ligand, relative to the value at the EC80 (0% inhibition) and basal value (100% inhibition).
(§3) FAAs are known to modulate diverse biological functions by interacting with human GPCRs. The products of the FAA screen are either known GPCR ligands or appear to structurally mimic these molecules (FIG. 30). The FAAs were analyzed for activity against a panel of known and orphan human GPCRs using the DiscoverX platform. The major compound from the four human gut metagenome-derived pathways (oleoyl dopamine, oleoyl tyramine, oleoyl aminovaleric acid, and lauroyl tryptamine) were chemically synthesized and screened at 10 uM on a panel of 168 known GPCRs covering 60 distinct receptors in both agonist and antagonist mode and 73 orphan GPCRs in agonist mode. […]

The target in another assay is T3, NPSR1b (Homo sapiens, UniProt Q6W5P4).
T3 sequence (Q6W5P4 1-377 isoform Q6W5P4-4): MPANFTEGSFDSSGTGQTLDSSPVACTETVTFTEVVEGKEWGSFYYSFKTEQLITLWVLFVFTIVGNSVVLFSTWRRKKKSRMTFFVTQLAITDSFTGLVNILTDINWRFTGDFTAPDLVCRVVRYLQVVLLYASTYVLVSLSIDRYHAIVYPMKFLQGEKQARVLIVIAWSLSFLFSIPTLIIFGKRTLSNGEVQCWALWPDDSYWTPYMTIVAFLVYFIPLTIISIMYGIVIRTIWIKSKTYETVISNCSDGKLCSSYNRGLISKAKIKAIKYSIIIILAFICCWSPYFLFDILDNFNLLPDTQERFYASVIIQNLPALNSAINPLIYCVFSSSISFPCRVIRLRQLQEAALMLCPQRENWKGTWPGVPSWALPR
Kind of assay: Cell-based β-arrestin reporter GPCR panel (DiscoverX) at 10 uM, NPSR1b. The conditions noted are these: compound at 10 uM. As to the method:
as §2, §3

Another assay addresses PTGER4 (Homo sapiens, UniProt P35408). Kind of assay: Cell-based β-arrestin reporter GPCR panel (DiscoverX) at 10 uM, PTGER4. The following applies: antagonist mode, compound at 10 uM. The procedure:
as §2, §3

For assay [2], the target named is T1, GPR132. The conditions noted are these: previously reported human microbiome-derived FAA GPCR modulator; read-out: GPR132 agonist at (previously reported); cited from earlier work.
Assay [3] deals with C protein of the L. clostridioforme, B. producta, C. celatum, C. sp pathways. In words: Substrate panel assay, condensation activity on amine panel. The class given is biochemical, Clostridia. The following applies: highest amine substrate of the panel for these four pathways; α-linolenic acid as fatty acid. As to the method: The human gut lumen consists of various fatty acid and amine substrates from different sources that the pathway can incorporate for FAA production. To characterize the preferred product, an in vitro substrate panel assay was set up to investigate substrate selectivity of the biosynthetic enzymes for each of the eight identified HMP-derived pathways (FIG. 2A). A and C enzyme activity was measured for defined fatty acid and amines, respectively, to determine the substrates that each pathway prefers to incorporate for FAA production (FIG. 2B-2C). A panel of 25 fatty acids and 53 biogenic amines derived from Clostridia, human cells, and human diet that are known to be abundant in the human gut was selected (FIG. 2D).^43,44,45,46,47 For consistency, FAA product level, instead of PPi level, was used as the metric of A activity for the panel assay by adding tryptamine for all query fatty acid substrates to measure the level of C-independent FAA formation based on the UV absorbance of the indole chromophore (FIG. 2B). […]
For adenylation activity, adenylation and thiolation proteins (no condensation) were added with the query fatty acid substrate(s) and tryptamine as a UV-active chromophore. […] The reaction was mixed with equal volume of methanol, spun down at 21,000 g for 1 min, and analyzed with the same analytical LCMS run as described previously. […]

The mark [4] stands for this setting: agonist mode, ten concentrations 100 to 0.0051 uM, read-out: EC50, stimulatory activity on GPR132.

Read-outs that look alike come from different tables or passages of the source.

One may read the IC50 as the concentration needed to halve the response being measured.

Chain of EBI2/GPR183 (P32249 whole entry): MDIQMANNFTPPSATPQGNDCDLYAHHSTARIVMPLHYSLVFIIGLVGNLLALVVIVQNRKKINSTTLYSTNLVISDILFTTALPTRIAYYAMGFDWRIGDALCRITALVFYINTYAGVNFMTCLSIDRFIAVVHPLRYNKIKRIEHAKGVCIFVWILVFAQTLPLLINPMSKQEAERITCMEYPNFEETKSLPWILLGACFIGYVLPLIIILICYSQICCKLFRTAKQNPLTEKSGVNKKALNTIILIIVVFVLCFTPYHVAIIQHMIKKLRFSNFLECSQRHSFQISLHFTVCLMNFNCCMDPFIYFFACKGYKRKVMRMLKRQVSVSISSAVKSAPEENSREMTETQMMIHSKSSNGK
Chain of PTGER4 (P35408 whole entry): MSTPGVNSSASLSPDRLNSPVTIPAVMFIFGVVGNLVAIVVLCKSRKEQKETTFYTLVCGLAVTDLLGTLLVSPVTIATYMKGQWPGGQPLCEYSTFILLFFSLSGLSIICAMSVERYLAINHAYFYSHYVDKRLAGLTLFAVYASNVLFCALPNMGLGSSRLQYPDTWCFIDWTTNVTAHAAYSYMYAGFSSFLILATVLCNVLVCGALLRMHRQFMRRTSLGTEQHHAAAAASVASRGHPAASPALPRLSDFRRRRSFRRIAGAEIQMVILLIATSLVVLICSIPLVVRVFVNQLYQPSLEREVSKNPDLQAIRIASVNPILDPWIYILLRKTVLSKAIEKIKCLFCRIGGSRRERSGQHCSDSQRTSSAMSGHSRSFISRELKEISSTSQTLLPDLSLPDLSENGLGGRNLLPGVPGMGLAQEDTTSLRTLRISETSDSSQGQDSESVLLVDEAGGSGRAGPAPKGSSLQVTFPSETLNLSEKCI

On to `CCCCCCCCCCCC(=O)O` [lauric acid], for which the EC50 on GPR132 [1] (setting [4]) stood at 25.2 µM. At EBI2/GPR183, the “inhibition on EBI2 (concentration-response, in words)” value is recorded as “Neither lauric acid nor tryptamine showed inhibition” and the IC50 was over 100 µM. Besides, the IC50 on P2RY4 was over 100 µM.

In the case of `CCCCCCCC/C=C\CCCCCCCC(=O)NCCc1ccc(O)cc1` [oleoyl tyramine], the “activity on PRLHR in GPCR panel” value on PRLHR is given as “shares activity”. Further, the “activity on NPSR1b in GPCR panel” value at NPSR1b is given as “shares activity”.

Regarding oleoyl aminovaleric acid, at PTGER4, the “inhibition of PTGER4 in GPCR panel” value is listed as “Inhibition was observed”.

In the case of `NCCc1c[nH]c2ccccc12` [tryptamine], the EC50 on GPR132 [1] is over 100 µM. Besides, on EBI2/GPR183, the “inhibition on EBI2 (concentration-response, in words)” value is on record as “Neither lauric acid nor tryptamine showed inhibition”.

Turning to `CCCCCCCCCCCCCC(O)CC(=O)NCC(=O)O` (centres unmarked) [commendamine], the EC50 at GPR132 [2] was 11.8 µM.

As to `N[C@@H](CCS)C(=O)O` [homocysteine], the “C protein enzymatic activity, fold difference with vs without condensation enzyme” value in assay [3] was 2 fold.

With `CCCCCCCCCCCC(=O)NCCc1c[nH]c2ccccc12` [lauroyl tryptamine], the EC50 at GPR132 [1] (setting [4]) came out at 1.45 µM. Besides, the IC50 was 0.98 µM at EBI2/GPR183 and over 100 µM at P2RY4.
